Results reported in patent US11065264B2, “Metal-olsalazine coordination polymers for medical applications” (THE REGENTS OF THE UNIVERSITY OF CALIFORNIA, priority 2016, dated 2021).

Tests used:
[1] = Content of active pharmaceutical ingredient by weight; type: physicochemical
[2] = treatment of ulcerative colitis; cited from earlier work
[3] = Olsalazine release from pressed pellets under simulated gastrointestinal conditions; type: physicochemical
Protocol: To evaluate the potential utility of Ca(H2olz).xH2O coordination solids in the treatment of ulcerative colitis (x=4, 2, and 0 for 1D, 2D, and 3D materials, respectively), each material was tested for drug release in comparison with Na2(H2olz), which is the salt used in the commercial formulation (available as Dipentum®). Each material was pressed into a pellet and exposed to solutions that mimic the pH of the stomach, small intestine, and colon. The pH and composition of the release medium was changed by addition of buffers in accordance to the expected transit times of a pill through the gastrointestinal tract: the first two hours were held at pH 1.1, the next two hours at pH 6.0, and the final six hours at pH 7.3. The vessels containing the pellet in release media were shaken at 60 rpm at 37° C. to simulate the motion and temperature of the body.
Sample pellets were prepared from pure material without binders or other agents typically used for pill preparation in the pharmaceutical industry. This was done in order to probe the properties of each material without influence from any excipients. Due to this method of preparation, however, pellets were susceptible to disintegration, which can accelerate the observed dissolution rates. […] The variability in pellet integrity likely contributed to the large observed standard deviation.
FIG. 3 is a graph of the release of olsalazine from Na2(H2olz) (circles) and Ca(H2olz).xH2O materials under simulated gastrointestinal conditions (x=4, 2, 0, denoted by squares, triangles, and diamonds, respectively). Error bars represent standard deviation across three independent data sets, where the quantity of olsalazine in solution was measured spectroscopically (λ=360 nm). The release media were changed throughout the study to emulate the typical pH and transit times of a pill passing through the stomach (pH 1.1, 2 h), small intestine (pH 6.0, 2 h), and colon (pH 7.3, 6 h).

## O=C(O)c1cc(/N=N/c2ccc(O)c(C(=O)O)c2)ccc1O [Na2(H2olz), olsalazine disodium]
[1]
  percentage of the active pharmaceutical ingredient (olsalazine) by weight: 79%
[2]
  patients discontinuing treatment because of diarrhea: over 10%
  patients experiencing diarrhea as a side effect: ≤ 35%
[3]; pellet without excipients, pH 1.1 2 h then pH 6.0 2 h, 37° C., 60 rpm, absorbance 360 nm
  amount of drug (olsalazine) released at the four-hour time point: over 90%
[3]; pellets of pure material without binders
  pellet disintegration in contact with the release solution: partially disintegrated
[3]; simulated gastrointestinal environment, pH 6.0 and above
  rate of olsalazine release/dissolution, Na2(H2olz) compared with Ca(H2olz) materials: dissolved more rapidly
